Data set [1] concerns mice. As to the kind of experiment: lethal dose in mice. The data set is classed as in vivo. As for the experimental part: The grayanotoxins have been described in exhaustive terms in literature and the chemical formulae are known. It has become evident that the effects of the substance occur even for low concentrations of the active agent. The lethal dose for grayanotoxin 1 in mice is approx. 5.1 mg per kg live weight and for grayanotoxin 3 approx. 4.9 mg per kg live weight. The substance as an active agent carrier may contain natural and/or synthetic carrier substances or substance mixtures. Natural carrier substances may be preferably selected from the group of natural oils, waxes and honey and their mixtures, emulsions, solutions or dispersions.

In data set [2] the test system is mice. As to the kind of experiment: experiments on development of resistance in mice. Type of data set: in vivo.

Consider `CC(=O)O[C@@H]1[C@H]2CC[C@H]3[C@@](C)(O)[C@@H]4C[C@H](O)C(C)(C)[C@@]4(O)[C@H](O)C[C@@]13C[C@@]2(C)O` [grayanotoxin 1], for which, in the data set on mice [1], the lethal dose result was “approx. 5.1 mg per kg live weight”.

In the case of grayanotoxin, the development of resistance entry with mice [2] was “rare for mice to develop a resistance”. As to grayanotoxin 3, in the data set on mice [1], the lethal dose entry is “approx. 4.9 mg per kg live weight”.

The record behind these values is patent US20190191690A1, “AGENTS AND DEVICE FOR COMBATING PESTS, IN […] AND MICE, AND METHOD FOR USING THE AGENTS” (priority 2016, published 2019).
